Laboratory results taken from patent publication US6627651B1, “Cyclic compounds and uses thereof” (Takeda Chemical Industries, Ltd., priority 1999, dated 2003).

**Q.** For `Cc1ccc(-c2ccc3c(c2)C=C(C(=O)Nc2ccc(C4=NCCN4)cc2)CCO3)cc1` [Compound 92, N-[4-(2-imidazolin-2-yl)phenyl]-7-(4-methylphenyl)-2,3-dihydro-1-benzooxepine-4-carboxamide], which melting point is on record?
**A.** 282 to 283 °C

**Q.** With `COC(=O)N1CCN=C1Cc1ccc(NC(=O)C2=Cc3cc(-c4ccc(C)cc4)ccc3OCC2)cc1` [Compound 96, N-[4-[(1-methoxycarbonyl-2-imidazolin-2-yl)methyl]phenyl]-7-(4-methylphenyl)-2,3-dihydro-1-benzooxepine-4-carboxamide] as the compound, how does the melting point read?
**A.** 170 to 171 °C

**Q.** With `Cc1ccc(COc2cccc(/C=C/c3ccc(CN4CCCCC4)cc3)c2)cc1` [Compound 97, (E)-1-[4-[3-(4-methylbenzyloxy)styryl]benzyl]piperidine] as the compound, how does the melting point read?
**A.** 87 to 88 °C

**Q.** Which melting point does the source give for `Cc1ccc(COc2cccc(/C=C/c3ccc(C[N+]4(C)CCCCC4)cc3)c2)cc1.[I-]` [Compound 98, (E)-1-methyl-1-[4-[3-(4-methylbenzyloxy)styryl]benzyl]piperidinium iodide] here?
**A.** 189 to 192 °C

**Q.** Which melting point does the source give for `CCCOCCOc1ccccc1COc1ccc2c(c1)C=C(C(=O)Nc1ccc(CN(C)C3CCOCC3)cc1)CCS2(=O)=O` [Compound 99, N-[4-[[N-methyl-N-(tetrahydropyran-4-yl)amino]methyl]phenyl]-7-[[2-(2-propoxyethoxy)benzyl]oxy]-1,1-dioxo-2,3-dihydro-1-benzothiepine-4-carboxamide] here?
**A.** 136 to 138 °C

**Q.** Which melting point does the source give for `CCOc1ccccc1COc1ccc2c(c1)C=C(C(=O)Nc1ccc(CN(C)C3CCOCC3)cc1)CCS2(=O)=O` [Compound 101, 7-[(2-ethoxybenzyl)oxy]-N-[4-[[N-methyl-N-(tetrahydropyran-4-yl)amino]methyl]phenyl]-1,1-dioxo-2,3-dihydro-1-benzothiepine-4-carboxamide] here?
**A.** 211 to 214 °C

**Q.** Which melting point does the source give for `COc1ccccc1COc1ccc2c(c1)C=C(C(=O)Nc1ccc(CN(C)C3CCOCC3)cc1)CCS2(=O)=O` [Compound 102, 7-[(2-methoxybenzyl)oxy]-N-[4-[[N-methyl-N-(tetrahydropyran-4-yl)amino]methyl]phenyl]-1,1-dioxo-2,3-dihydro-1-benzothiepine-4-carboxamide] here?
**A.** 223 to 225 °C

**Q.** With `CN(Cc1ccc(NC(=O)C2=Cc3cc(OCc4ccccc4Cl)ccc3S(=O)(=O)CC2)cc1)C1CCOCC1` [Compound 103, 7-[(2-chlorobenzyl)oxy]-N-[4-[[N-methyl-N-(tetrahydropyran-4-yl)amino]methyl]phenyl]-1,1-dioxo-2,3-dihydro-1-benzothiepine-4-carboxamide] as the compound, how does the melting point read?
**A.** 205 to 207 °C

**Q.** Which melting point does the source give for `CCOCCOc1ccccc1COc1ccc2c(c1)C=C(C(=O)Nc1ccc(CN(C)C3CCOCC3)cc1)CCS2(=O)=O` [Compound 104, 7-[[2-(2-ethoxyethoxy)benzyl]oxy]-N-[4-[[N-methyl-N-(tetrahydropyran-4-yl)amino]methyl]phenyl]-1,1-dioxo-2,3-dihydro-1-benzothiepine-4-carboxamide] here?
**A.** 132 to 136 °C

**Q.** With `CCCOc1cccc(CCOc2ccc3c(c2)C=C(C(=O)Nc2ccc(CN(C)C4CCOCC4)cc2)CCS3(=O)=O)c1` [Compound 105, N-[4-[[N-methyl-N-(tetrahydropyran-4-yl)amino]methyl]phenyl]-7-[(3-propoxyphenethyl)oxy]-1,1-dioxo-2,3-dihydro-1-benzothiepine-4-carboxamide] as the compound, how does the melting point read?
**A.** 153 to 154 °C

**Q.** Which melting point does the source give for `CCCOc1ccccc1CCOc1ccc2c(c1)C=C(C(=O)Nc1ccc(CN(C)C3CCOCC3)cc1)CCS2(=O)=O` [Compound 106, N-[4-[[N-methyl-N-(tetrahydropyran-4-yl)amino]methyl]phenyl]-7-[(2-propoxyphenethyl)oxy]-1,1-dioxo-2,3-dihydro-1-benzothiepine-4-carboxamide] here?
**A.** 161 to 162 °C

**Q.** With `CCOCCOc1ccc(COc2ccc3c(c2)C=C(C(=O)Nc2ccc(CN(C)C4CCOCC4)cc2)CCS3(=O)=O)cc1` [Compound 107, N-[4-[[N-methyl-N-(tetrahydropyran-4-yl)amino]methyl]phenyl]-7-[[4-(2-ethoxyethoxy)benzyl]oxy]-1,1-dioxo-2,3-dihydro-1-benzothiepine-4-carboxamide] as the compound, how does the melting point read?
**A.** 185 to 187 °C

**Q.** For `CCCOCCOc1ccc(COc2ccc3c(c2)C=C(C(=O)Nc2ccc(CN(C)C4CCOCC4)cc2)CCS3(=O)=O)cc1OCC` [Compound 110, 7-[[3-ethoxy-4-(2-propoxyethoxy)benzyl]oxy]-N-[4-[[N-methyl-N-(tetrahydropyran-4-yl)amino]methyl]phenyl]-1,1-dioxo-2,3-dihydro-1-benzothiepine-4-carboxamide], which melting point is on record?
**A.** 146 to 147 °C

**Q.** For `CCCOc1ccc(Oc2ccc3c(c2)C=C(C(=O)Nc2ccc(CN(C)C4CCOCC4)cc2)CCS3(=O)=O)cc1` [Compound 111, N-[4-[[N-methyl-N-(tetrahydropyran-4-yl)amino]methyl]phenyl]-7-(4-propoxyphenoxy)-1,1-dioxo-2,3-dihydro-1-benzothiepine-4-carboxamide], which melting point is on record?
**A.** 139 to 141 °C

**Q.** For `CCCOc1cccc(Oc2ccc3c(c2)C=C(C(=O)Nc2ccc(CN(C)C4CCOCC4)cc2)CCS3(=O)=O)c1` [Compound 112, N-[4-[[N-methyl-N-(tetrahydropyran-4-yl)amino]methyl]phenyl]-7-(3-propoxyphenoxy)-1,1-dioxo-2,3-dihydro-1-benzothiepine-4-carboxamide], which melting point is on record?
**A.** 143 to 144 °C

**Q.** With `CCCc1ccc(Oc2ccc3c(c2)C=C(C(=O)Nc2ccc(CN(C)C4CCOCC4)cc2)CCS3(=O)=O)cc1` [Compound 113, N-[4-[[N-methyl-N-(tetrahydropyran-4-yl)amino]methyl]phenyl]-7-(4-propylphenoxy)-1,1-dioxo-2,3-dihydro-1-benzothiepine-4-carboxamide] as the compound, how does the melting point read?
**A.** 147 to 149 °C

**Q.** With `CCCOCCOc1ccc(Oc2ccc3c(c2)C=C(C(=O)Nc2ccc(CN(C)C4CCOCC4)cc2)CCS3(=O)=O)cc1OCC` [Compound 114, 7-[3-ethoxy-4-(2-propoxyethoxy)phenoxy]-N-[4-[[N-methyl-N-(tetrahydropyran-4-yl)amino]methyl]phenyl]-1,1-dioxo-2,3-dihydro-1-benzothiepine-4-carboxamide] as the compound, how does the melting point read?
**A.** 159 to 160 °C

**Q.** With `CCCOCc1ccccc1Oc1ccc2c(c1)C=C(C(=O)Nc1ccc(CN(C)C3CCOCC3)cc1)CCS2(=O)=O` [Compound 115, N-[4-[[N-methyl-N-(tetrahydropyran-4-yl)amino]methyl]phenyl]-7-(2-propoxymethylphenoxy)-1,1-dioxo-2,3-dihydro-1-benzothiepine-4-carboxamide] as the compound, how does the melting point read?
**A.** 162 to 164 °C

**Q.** With `COc1cccc(COc2ccc3c(c2)C=C(C(=O)Nc2ccc(CN(C)C4CCOCC4)cc2)CCS3(=O)=O)c1` [Compound 117, 7-(3-methoxybenzyloxy)-N-[4-[[N-methyl-N-(tetrahydropyran-4-yl)amino]methyl]phenyl]-1,1-dioxo-2,3-dihydro-1-benzothiepine-4-carboxamide] as the compound, how does the melting point read?
**A.** 181 to 185 °C

**Q.** For `CCOc1cccc(COc2ccc3c(c2)C=C(C(=O)Nc2ccc(CN(C)C4CCOCC4)cc2)CCS3(=O)=O)c1` [Compound 118, 7-(3-ethoxybenzyloxy)-N-[4-[[N-methyl-N-(tetrahydropyran-4-yl)amino]methyl]phenyl]-1,1-dioxo-2,3-dihydro-1-benzothiepine-4-carboxamide], which melting point is on record?
**A.** 189 to 192 °C

**Q.** For `CCCOc1ccccc1CCCOc1ccc2c(c1)C=C(C(=O)Nc1ccc(CN(C)C3CCOCC3)cc1)CCS2(=O)=O` [Compound 119, N-[4-[[N-methyl-N-(tetrahydropyran-4-yl)amino]methyl]phenyl]-7-[3-(2-propoxyphenyl)propoxy]-1,1-dioxo-2,3-dihydro-1-benzothiepine-4-carboxamide], which melting point is on record?
**A.** 184 to 186 °C

**Q.** Which melting point does the source give for `CCOc1ccc(COc2ccc3c(c2)C=C(C(=O)Nc2ccc(CN(C)C4CCOCC4)cc2)CCS3(=O)=O)cc1OCC` [Compound 122, N-[4-[[N-methyl-N-(tetrahydropyran-4-yl)amino]methyl]phenyl]-7-(3,4-diethoxybenzyloxy)-1,1-dioxo-2,3-dihydro-1-benzothiepine-4-carboxamide] here?
**A.** 186 to 188 °C

**Q.** Which melting point does the source give for `CCOCCCc1ccc(Oc2ccc3c(c2)C=C(C(=O)Nc2ccc(CN(C)C4CCOCC4)cc2)CCS3(=O)=O)cc1` [Compound 125, 7-[4-(3-ethoxypropyl)phenoxy]-N-[4-[[N-methyl-N-(tetrahydro-2H-pyran-4-yl)amino]methyl]phenyl]-1,1-dioxo-2,3-dihydro-1-benzothiepine-4-carboxamide] here?
**A.** 156 to 157 °C

**Q.** Which melting point does the source give for `CCOCCOc1c(C)cc(Oc2ccc3c(c2)C=C(C(=O)Nc2ccc(CN(C)C4CCOCC4)cc2)CCS3(=O)=O)cc1C` [Compound 126, 7-[4-(2-ethoxyethoxy)-3,5-dimethylphenoxy]-N-[4-[[N-methyl-N-(tetrahydro-2H-pyran-4-yl)amino]methyl]phenyl]-1,1-dioxo-2,3-dihydro-1-benzothiepine-4-carboxamide] here?
**A.** 111 to 113 °C
